Results as given in patent US20260125371A1, “METHOD FOR INHIBITING CLOSTRIDIOIDES DIFFICILE SPORE GERMINATION” (UNIVERSITY OF NOTRE DAME DU LAC, priority 2022, published 2026).
Converted amounts (≈) assume the structure as drawn. “And” between values parts separate entries of the source, which are not always exact repeats. Identical values can stand only once.

Assays:
C. difficile ATCC 43255 = experiment: Determination of minimal-inhibitory concentrations (microdilution), C. difficile ATCC 43255; format: cell-based, Clostridioides difficile; details: for MIC (μg/mL) 48 h: C. difficile ATCC 43255, 48-h incubation; for MIC (μg/mL) 24 h: C. difficile ATCC 43255, 24 h
S. aureus = experiment: MIC against S. aureus strains; format: cell-based; details: S. aureus ATCC 29213, 24 h

Compound	MIC (μg/mL) 48 h (C. difficile ATCC 43255)	MIC (μg/mL) 24 h (C. difficile ATCC 43255)	MIC (μg/mL) 24 h (S. aureus)
Oc1ccc(-c2nc(-c3ccc(Oc4ccc(C(F)(F)F)cc4)cc3)no2)cc1O [Compound 12]	128 µg/mL and >128 µg/mL	>128 µg/mL	2 µg/mL (≈ 4.83 µM)
COc1cc(-c2nc(-c3ccc(Oc4ccc(C(F)(F)F)cc4)cc3)no2)ccc1O [Compound 13]	16 µg/mL (≈ 37.4 µM)	16 µg/mL (≈ 37.4 µM)	>128 µg/mL
O=c1ccc(-c2nc(-c3ccc(Oc4ccc(C(F)(F)F)cc4)cc3)no2)c[nH]1 [Compound 14]	>128 µg/mL	>128 µg/mL	>128 µg/mL
Nc1cc(-c2nc(-c3ccc(Oc4ccc(C(F)(F)F)cc4)cc3)no2)cnc1O [Compound 15]	>128 µg/mL	>128 µg/mL	>128 µg/mL
FC(F)(F)c1ccc(Oc2ccc(-c3noc(-c4ccc(Br)cc4)n3)cc2)cc1 [Compound 18]	>128 µg/mL	>128 µg/mL	>128 µg/mL
O=[N+]([O-])c1ccc(-c2nc(-c3ccc(Oc4ccc(C(F)(F)F)cc4)cc3)no2)cc1 [Compound 19]	>128 µg/mL	>128 µg/mL	≥128 µg/mL
Nc1ccc(-c2nc(-c3ccc(Oc4ccc(C(F)(F)F)cc4)cc3)no2)cc1F [Compound 20]	>128 µg/mL	>128 µg/mL	2 µg/mL (≈ 4.82 µM)
COc1ccc(-c2nc(-c3ccc(Oc4ccc(C(F)(F)F)cc4)cc3)no2)cc1[N+](=O)[O-] [Compound 22]	>128 µg/mL	>128 µg/mL	>128 µg/mL
Nc1cc(-c2nc(-c3ccc(Oc4ccc(C(F)(F)F)cc4)cc3)no2)ccn1 [Compound 24]	>128 µg/mL	>128 µg/mL	>128 µg/mL
FC(F)(F)c1ccc(Oc2ccc(-c3noc(-c4cc[nH]n4)n3)cc2)cc1 [Compound 25]	>128 µg/mL	>128 µg/mL	>128 µg/mL
